Laboratory results reported in patent US12077503B2, “Substituted cyclic amides and their use as herbicides” (FMC CORPORATION, priority 2015, dated 2024).
Where two headings read alike, the source gives them in different places.

How the values were obtained:
Kochia (Kochia scoparia) = test: Test A preemergence; type: in vivo; conditions: Bassia scoparia, pre-emergence, 240 h; for pest or weed control at 125 g/ha: 125 g ai/ha; for pest or weed control at 500 g/ha: 500 g ai/ha
Summary of the method: (§1)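 Greenhouse, ~10 d after spray; visual injury vs untreated controls, 0 = no effect, 100 = complete control. Preemergence: directed soil spray over planted seeds. Postemergence: plants 2–10 cm, 1–2 leaf stage. Loam/sand blend. Compound in non-phytotoxic solvent with surfactant.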

[1] = system: barnyardgrass (Echinochloa crus-galli); test: Test A preemergence; type: in vivo; conditions: Echinochloa crus-galli, pre-emergence, 240 h; for pest or weed control at 125 g/ha: 125 g ai/ha; for pest or weed control at 500 g/ha: 500 g ai/ha
Summary of the method: as §1

[2] = system: giant foxtail (Setaria faberii); test: Test A preemergence; type: in vivo; conditions: Setaria faberi, pre-emergence, 240 h; for pest or weed control at 125 g/ha: 125 g ai/ha; for pest or weed control at 500 g/ha: 500 g ai/ha
Summary of the method: as §1

[3] = system: ragweed (common ragweed, Ambrosia elatior); test: Test A preemergence; type: in vivo; conditions: Ambrosia artemisiifolia, pre-emergence, 240 h; for pest or weed control at 125 g/ha: 125 g ai/ha; for pest or weed control at 500 g/ha: 500 g ai/ha
Summary of the method: as §1

[4] = system: ryegrass, Italian (Italian ryegrass, Lolium multiflorum); test: Test A preemergence; type: in vivo; conditions: Lolium multiflorum, pre-emergence, 240 h; for pest or weed control at 125 g/ha: 125 g ai/ha; for pest or weed control at 500 g/ha: 500 g ai/ha
Summary of the method: as §1

[5] = preemergence, 0 to 100 scale where 0 is no effect and 100 is complete control, read-out: Kochia plant response rating
[6] = preemergence, 0 to 100 scale where 0 is no effect and 100 is complete control, read-out: Barnyardgrass plant response rating
[7] = preemergence, 0 to 100 scale where 0 is no effect and 100 is complete control, read-out: Foxtail, Giant plant response rating
[8] = preemergence, 0 to 100 scale where 0 is no effect and 100 is complete control, read-out: Ragweed plant response rating
[9] = preemergence, 0 to 100 scale where 0 is no effect and 100 is complete control, read-out: Ryegrass, Italian plant response rating
[10] = Preemergence, visual injury rating after approximately 10 d, read-out: Kochia plant response rating (0 to 100 scale, 0 is no effect, 100 is complete control)
[11] = preemergence, visual injury rating about 10 d after treatment, 0 to 100 scale (0 no effect, 100 complete control), read-out: Kochia plant response rating
[12] = Preemergence, visual injury rating after approximately 10 d, read-out: Barnyardgrass plant response rating (0 to 100 scale, 0 is no effect, 100 is complete control)
[13] = preemergence, visual injury rating about 10 d after treatment, 0 to 100 scale (0 no effect, 100 complete control), read-out: Barnyardgrass plant response rating
[14] = Preemergence, visual injury rating after approximately 10 d, read-out: Foxtail, Giant plant response rating (0 to 100 scale, 0 is no effect, 100 is complete control)
[15] = preemergence, visual injury rating about 10 d after treatment, 0 to 100 scale (0 no effect, 100 complete control), read-out: Foxtail, Giant plant response rating
[16] = Preemergence, visual injury rating after approximately 10 d, read-out: Ragweed plant response rating (0 to 100 scale, 0 is no effect, 100 is complete control)
[17] = preemergence, visual injury rating about 10 d after treatment, 0 to 100 scale (0 no effect, 100 complete control), read-out: Ragweed plant response rating
[18] = Preemergence, visual injury rating after approximately 10 d, read-out: Ryegrass, Italian plant response rating (0 to 100 scale, 0 is no effect, 100 is complete control)
[19] = preemergence, visual injury rating about 10 d after treatment, 0 to 100 scale (0 no effect, 100 complete control), read-out: Ryegrass, Italian plant response rating

| melting point [°C] | Compound | pest or weed control at 125 g/ha (Kochia (Kochia scoparia); [10]) [%] | pest or weed control at 500 g/ha (Kochia (Kochia scoparia); [11]) [%] | pest or weed control at 125 g/ha [1, 12] [%] | pest or weed control at 500 g/ha [1, 13] [%] | pest or weed control at 125 g/ha [2, 14] [%] | pest or weed control at 500 g/ha [2, 15] [%] | pest or weed control at 125 g/ha [3, 16] [%] | pest or weed control at 500 g/ha [3, 17] [%] | pest or weed control at 125 g/ha [4, 18] [%] | pest or weed control at 500 g/ha [4, 19] [%] | other results |
| --- | --- | --- | --- | --- | --- | --- | --- | --- | --- | --- | --- | --- |
| 133 to 137 | O=C1NC[C@H](c2ccc(F)c(OC(F)(F)C(F)(F)Br)c2)[C@H]1C(=O)Nc1ccccc1F [Compound 1134] |  |  |  |  |  |  |  |  |  |  | pest or weed control at 125 g/ha (Kochia (Kochia scoparia); preemergence, 0 to 100 scale where 0 is no effect and 100 is complete control, approx. 10 d, read-out: Kochia plant response rating): 50%; pest or weed control at 500 g/ha (Kochia (Kochia scoparia); [5]): 60%; pest or weed control at 125 g/ha ([1]; preemergence, 0 to 100 scale where 0 is no effect and 100 is complete control, approx. 10 d, read-out: Barnyardgrass plant response rating): 30%; pest or weed control at 500 g/ha [1, 6]: 80%; pest or weed control at 125 g/ha ([2]; preemergence, 0 to 100 scale where 0 is no effect and 100 is complete control, approx. 10 d, read-out: Foxtail, Giant plant response rating): 70%; pest or weed control at 500 g/ha [2, 7]: 90%; pest or weed control at 125 g/ha ([3]; preemergence, 0 to 100 scale where 0 is no effect and 100 is complete control, approx. 10 d, read-out: Ragweed plant response rating): 0%; pest or weed control at 500 g/ha [3, 8]: 70%; pest or weed control at 125 g/ha ([4]; preemergence, 0 to 100 scale where 0 is no effect and 100 is complete control, approx. 10 d, read-out: Ryegrass, Italian plant response rating): 0%; pest or weed control at 500 g/ha [4, 9]: 40% |
| 174 to 176 | Cc1ccc([C@H]2CCNC(=O)[C@@H]2C(=O)Nc2cccc(F)c2F)cc1 [Compound 973] | 0 | 60 | 90 | 90 | 90 | 90 | 0 | 70 | 0 | 30 |  |
| 115 to 119 | O=C1NC[C@H](c2cc(C(F)(F)F)ccn2)[C@H]1C(=O)Nc1ccccc1F [Compound 948] | 0 | 0 | 70 | 90 | 70 | 90 | 0 | 0 | 0 | 0 |  |
| 137 to 140 | COc1cccc(C2CN(C)C(=O)C2C(=O)Nc2cccc(F)c2F)c1 (centres unmarked) [Compound 886] |  |  |  |  |  |  |  |  |  |  | pest or weed control at 125 g/ha (Kochia (Kochia scoparia); [5]): 80%; pest or weed control at 500 g/ha (Kochia (Kochia scoparia); Preemergence, visual injury vs untreated controls after approximately 10 d, read-out: Kochia plant response rating (0 to 100 scale where 0 is no effect and 100 is complete control)): 90%; pest or weed control at 125 g/ha [1, 6]: 90%; pest or weed control at 500 g/ha ([1]; Preemergence, visual injury vs untreated controls after approximately 10 d, read-out: Barnyardgrass plant response rating (0 to 100 scale where 0 is no effect and 100 is complete control)): 90%; pest or weed control at 125 g/ha [2, 7]: 90%; pest or weed control at 500 g/ha ([2]; Preemergence, visual injury vs untreated controls after approximately 10 d, read-out: Foxtail, Giant plant response rating (0 to 100 scale where 0 is no effect and 100 is complete control)): 100%; pest or weed control at 125 g/ha [3, 8]: 0%; pest or weed control at 500 g/ha ([3]; Preemergence, visual injury vs untreated controls after approximately 10 d, read-out: Ragweed plant response rating (0 to 100 scale where 0 is no effect and 100 is complete control)): 50%; pest or weed control at 125 g/ha [4, 9]: 0%; pest or weed control at 500 g/ha ([4]; Preemergence, visual injury vs untreated controls after approximately 10 d, read-out: Ryegrass, Italian plant response rating (0 to 100 scale where 0 is no effect and 100 is complete control)): 60% |
